Where a name gives a salt, the structure may show the parent alone.
Columns and labels:
[1] = tested on: Von Bezold-Jarisch Reflex induced by 5-HT; experiment: Von Bezold-Jarisch Reflex induced by intravenous 5-HT; assay type: in vivo; conditions: rat
From the text: The activity of these compounds against 5-HT can be assessed in vivo by measurement of the effect of the compound on the Von Bezold-Jarisch Reflex induced by 5-HT injected intravenously into the rat (see Paintal A.S., Physiol. Rev. 53, 159-227, 1973; J.R. Fozard, Naunyn-Schmiedeberg's Arch. Pharmacol., 326, 1984, 36-44). The transient cardiac slowing arises from an increased afferent vagus activity arising from stimulation by 5-HT of sensory afferent fibers in and around the heart.

[2] = tested on: action potential of isolated cardiac tissue; experiment: Action potential of isolated cardiac tissue (Purkinje fiber or papillary muscle); set-up: species or system dog or guinea pig; conditions: 10⁻⁸ to 10⁻⁵ moles/liter in tissue bath, stimulation at 1 Hz
From the text: A gas mixture comprised of 95% O₂ and 5% CO₂ is bubbled through the solution while it is maintained within a pH range of from 7.3-7.4.
The heart of an anesthetized mongrel dog is surgically removed and the Purkinje fibers are dissected from either of the ventricles. Alternately, papillary muscles are removed from the right cardiac ventricle of a guinea pig. A Purkinje fiber or a papillary muscle is then placed in a tissue bath which is continuously perfused with modified Tyrode's solution.¹
The electrophysiology of the cardiac tissue is monitored by conventional glass microelectrodes. One microelectrode is inserted into a cell in the cardiac muscle fiber and a ground electrode is positioned in the tissue bath. A conventional oscilloscope is utilized to visualize the action potential waveforms of the cardiac cell. […]
At this point, representative control action potentials are recorded and analyzed by a computer.
After establishing a control action potential, the test compound is introduced into the Modified Tyrode's solution in a quantity such that the test compound is present within the tissue bath in a range of from 10⁻⁸ to 10⁻⁵ moles/liter. After the effect of the test compound has reached a steady state, the action potential is again recorded and analyzed in the manner described above.

| Compound | suppression of the Von Bezold-Jarisch Reflex response ([1]; 0.01-0.1 mg/kg given intravenously) | suppression of the Von Bezold-Jarisch Reflex response ([1]; 0.25-1 mg/kg given orally) | rate of maximal depolarization of the action potential [2] |
| --- | --- | --- | --- |
| O=C(OC1CC2CC3CC(C1)N2CC3=O)c1c[nH]c2ccccc12 (stereo not drawn) [endo-hexahydro-8-(3-indolylcarbonyloxy)-2,6-methano-2H-quinolizin-3(4H)-one hydrochloride] | suppressed the response dose-dependently | suppressed the response dose-dependently |  |
| O=C(OC1CC2CC3CC(C1)N2CC3=O)c1c[nH]c2ccccc12 (stereo not drawn) [endo-hexahydro-8-(3-indolylcarbonyloxy)-2,6-methano-2H-quinolizin-3(4H)-one] |  |  | capable of delaying the rate of maximal depolarization of the action potential |

Reference: patent EP0330824A1, “Use of quinolizine and quinolizinone derivatives in the manufacture of medicaments for the treatment of cardiac arrhythmias” (MERRELL DOW PHARMACEUTICALS INC., priority 1988, dated 1989)
